Data reported in PMC6178183, “Development of a HPLC-MS/MS Method to Determine 11 Bioactive Compounds in Tongmai Yangxin Pill and Application to a Pharmacokinetic Study in Rats” (Evidence-based Complementary and Alternative Medicine : eCAM, 2018).
Values joined by “and” are separate entries in the source; they are usually repeats but may differ in a detail not shown here. Equal entries are not always repeated.

Columns and labels:
[1] = set-up: method as in PMID 23608243; details: rat dosed processed Radix polygoni multiflori; cited from earlier work
[2] = Pharmacokinetic study in rats after oral administration of TMYX extract (HPLC-MS/MS of plasma); type: in vivo, Sprague–Dawley rats; details: rat plasma; for AUC(0-inf) / half-life / AUC / k el: male, Sprague-Dawley; for AUC(0-inf) / half-life / AUC / k el / C max1 / T max1 / C max2 / T max2: oral TMYX extract 8.3 g/kg single dose; for AUC(0-inf) / half-life / AUC / k el / C max1 / C max2 / T max2: n=6; for AUC: read-out: AUC (0-tn); for k el: read-out: K e (converted); for T max1: n=6, mean ± SD; for peaks in the mean plasma concentration-time profile: oral TMYX extract 8.3 g/kg; for C max2 / T max2: second peak
Procedure: The HPLC-MS/MS system consists of an Agilent 1200 high-performance liquid chromatography coupled with an Aglient 6430 series triple quadrupole mass spectrometer with an electrospray ionization (ESI) source. The chromatographic separation was achieved on a CORTECS C18 column (4.6 mm × 150 mm, 2.7 μm), and the column temperature was kept at 30°C. Mobile phases which consisted of 0.1% formic acid in water (A) and acetonitrile (B) were used in the following gradient elution method: 0-10 min, 10%-85% B; 10-13 min, 85%-95% B; 13-19 min, 95%-95% B. The flow rate was set at 0.3 mL/min, and the injection volume was 10 μL. All data were analyzed by Mass Hunter workstation software (Agilent Technologies, USA).
The mass spectrometer was carried out in both positive and negative ionization multiple-reaction monitoring (MRM) mode. The source parameters were as follows: the capillary voltage set at 300 V for positive ionization mode and -300 V for negative ionization mode, the drying gas temperature was 320°C, the flow was 11 L/min, and nebulizing gas pressure was 30 psi.
The plasma (100 μL) was spiked with 20 μL of methanol, 20 μL of the IS (icariin, 1 μg/mL), and 20 μL of formic acid and then vortex-mixed. The mixture was extracted with 800 μL of ethyl acetate by vortex mixing for 5 min at room temperature. After centrifugation at 14,000 rpm for 10 min, the supernatant was collected to a clean tube and evaporated to dryness under a nitrogen stream. The residue was reconstituted in 50 μL of 50% methanol, vortexed for 5 min, and centrifuged at 14,000 rpm for 10 min. Finally, 10 μL supernatant was injected into the LC-MS/MS system for analysis.
Male Sprague–Dawley rats (230-250 g) were obtained from Beijing HFK Experimental Animal Technology Co., Ltd. The rats were maintained under the control environmental conditions and they fasted for 12 h with free access to water before the experiments. TMYX extracts were dissolved in CMC-Na and administrated orally to rats at 8.3 g/kg. The blood samples (200 μL) were collected from the rat fossa orbitalis vein at 0, 0.03, 0.083, 0.17, 0.25, 0.5, 1, 2, 4, 6, 8, 10, 12, 24, 36, and 48 h after oral administration to heparinized tubes. And then the blood samples were centrifuged at 7,000 rpm for 10 min to get the plasma sample immediately. Finally, the plasma obtained was stored at −70°C until analysis. Pharmacokinetic parameters were calculated by the computer program “Drug and Statistics 2.0” (DAS 2.0) (Medical College of Wannan, China).

[3] = Stability of analytes in rat plasma QC samples under storage conditions; type: in vitro ADME; details: n=6, gallic acid, ononin, schisandrin, stilbene glycoside, liquiritigenin, rhein, verbascoside; for Measured Concentration, auto-sampler for 12 h: prepared rat plasma samples; for Measured Concentration, -70°C for 14 days / Measured Concentration, room temperature for 6 h / Measured Concentration, three freeze-thaw cycles: rat plasma
Procedure: Quality control (QC) samples at three concentrations (low, medium, and high concentration) were made up of appropriate mixed standard solutions with blank blood sample as calibration solutions to meet the required concentrations. All the solutions were kept at 4°C.
The stability of analytes in plasma samples was determined by analyzing QC samples of three concentration levels at different conditions: stored at autosampler for 12 h, at room temperature for 6 h, under three freeze-thaw cycles and stored at -70°C for 14 days. All stability studies were measured in six replicates.

[4] = test system: human umbilical vein endothelial cells; set-up: method as in doi:10.1039/C6RA19212B; details: human umbilical vein endothelial cells in zebrafish; cited from earlier work
[5] = set-up: method as in PMID 25943824; details: active ingredients of TMYX with high R values; cited from earlier work
[6] = set-up: method as in PMID 26771134; details: rat plasma, oral Radix glycyrrhizae or combination of Radix glycyrrhizae and Ramulus cinnamomi; cited from earlier work
[7] = high QC: spiked 2000 ng/mL glycyrrhizic acid, 1000 liquiritin, 200 emodin, 100 isoliquiritigenin
[8] = low QC: spiked 20 ng/mL glycyrrhizic acid, 10 liquiritin, 2 emodin, 1 isoliquiritigenin
[9] = medium QC: spiked 200 ng/mL glycyrrhizic acid, 100 liquiritin, 20 emodin, 10 isoliquiritigenin

| AUC(0-inf) [2] | half-life [2] | AUC [2] | k el [2] | C max1 [2] | T max1 [2] | Measured Concentration, auto-sampler for 12 h [3, 7] | Measured Concentration, auto-sampler for 12 h [3, 8] | Measured Concentration, auto-sampler for 12 h [3, 9] | Measured Concentration, -70°C for 14 days [3, 7] | Measured Concentration, room temperature for 6 h [3, 7] | Measured Concentration, three freeze-thaw cycles [3, 7] | Measured Concentration, -70°C for 14 days [3, 8] | Measured Concentration, room temperature for 6 h [3, 8] | Measured Concentration, three freeze-thaw cycles [3, 8] | Measured Concentration, -70°C for 14 days [3, 9] | Measured Concentration, room temperature for 6 h [3, 9] | Measured Concentration, three freeze-thaw cycles [3, 9] | SMILES | proliferation and angiogenesis [4] | antiinflammatory effects [5] | other results |
| --- | --- | --- | --- | --- | --- | --- | --- | --- | --- | --- | --- | --- | --- | --- | --- | --- | --- | --- | --- | --- | --- |
| – | – | – | – | – | – | – | – | – | – | – | – | – | – | – | – | – | – | CC(C)=CCc1cc(-c2oc3cc(O)c(CC=C(C)C)c(O)c3c(=O)c2O)ccc1O [glyasperin A] | promote proliferation and angiogenesis | – | – |
| – | – | – | – | – | – | – | – | – | – | – | – | – | – | – | – | – | – | COc1c(CC=C(C)C)c(O)cc2oc(=O)c(-c3ccc(O)cc3O)cc12 [glycycoumarin] | promote proliferation and angiogenesis | – | – |
| 17300 ± 11000 ng·h/mL | 18.2 ± 9.61 h | 12700 ± 5060 ng·h/mL | 1.39e-05 s⁻¹ | 351.7 ± 347.4 ng/mL | 2.13 h and 2.13 ± 1.44 h | 1884.66 ± 9.26 ng/mL | 19.25 ± 0.34 ng/mL | 200.96 ± 3.93 ng/mL | 1834.54 ± 29.34 ng/mL | 2099.10 ± 8.92 ng/mL | 1869.00 ± 42.55 ng/mL | 18.77 ± 0.09 ng/mL | 20.49 ± 0.79 ng/mL | 19.30 ± 0.20 ng/mL | 200.33 ± 2.98 ng/mL | 203.22 ± 3.32 ng/mL | 188.63 ± 3.57 ng/mL | CC1(C)[C@@H](O[C@H]2O[C@H](C(=O)O)[C@@H](O)[C@H](O)[C@H]2O[C@@H]2O[C@H](C(=O)O)[C@@H](O)[C@H](O)[C@H]2O)CC[C@]2(C)[C@H]3C(=O)C=C4[C@@H]5C[C@@](C)(C(=O)O)CC[C@]5(C)CC[C@@]4(C)[C@]3(C)CC[C@@H]12 [glycyrrhizic acid] | – | exert antiinflammatory effects in a dose-dependent manner | detection in vivo at 48 h ([2]; 48 h after oral TMYX extract 8.3 g/kg): can still be detected in vivo at 48 h; peaks in the mean plasma concentration-time profile [2]: double peaks; C max2 [2]: 476.1 ± 146.0 ng/mL; T max2 [2]: 17.67 h and 17.67 ± 10.31 h; peaks in plasma concentration-time profile [6]: One peak |
| – | – | – | – | – | – | – | – | – | – | – | – | – | – | – | – | – | – | CC(C)=CCc1c(O)ccc(-c2coc3cc(O)cc(O)c3c2=O)c1O [licoisoflavone A] | promote proliferation and angiogenesis | – | – |
| – | – | – | – | – | – | – | – | – | – | – | – | – | – | – | – | – | – | COc1cc2c(c(OC)c1CC=C(C)C)C(=O)[C@H](c1ccc(O)c(CC=C(C)C)c1O)CO2 [licorisoflavan A] | promote proliferation and angiogenesis | – | – |
| 333 ± 142 ng·h/mL | 12.7 ± 7.04 h | 315 ± 130 ng·h/mL | 0.000139 s⁻¹ | 37.8 ± 24.1 ng/mL | 0.20 h and 0.20 ± 0.07 h | 92.65 ± 0.68 ng/mL | 0.87 ± 0.01 ng/mL | 8.63 ± 0.23 ng/mL | 91.88 ± 0.86 ng/mL | 112.69 ± 1.30 ng/mL | 92.59 ± 0.63 ng/mL | 0.88 ± 0.02 ng/mL | 0.87 ± 0.01 ng/mL | 0.89 ± 0.02 ng/mL | 9.26 ± 0.08 ng/mL | 10.82 ± 0.58 ng/mL | 8.99 ± 0.07 ng/mL | O=C1C[C@@H](c2ccc(O)cc2)Oc2cc(O)ccc21 [liquiritigenin] | – | – | peaks in the mean plasma concentration-time profile [2]: double peaks; C max2 [2]: 21.0 ± 15.3 ng/mL; T max2 [2]: 7.20 h and 7.20 ± 3.35 h; peaks in plasma concentration-time profile [6]: One peak |
| 473 ± 321 ng·h/mL | 2.73 ± 1.54 h | 411 ± 239 ng·h/mL | 9.44e-05 s⁻¹ | 92.6 ± 53.0 ng/mL | 1.00 ± 0.92 h | 196.02 ± 2.10 ng/mL | 1.83 ± 0.02 ng/mL | 18.35 ± 0.09 ng/mL | 183.83 ± 1.00 ng/mL | 194.61 ± 1.13 ng/mL | 189.32 ± 1.74 ng/mL | 1.77 ± 0.03 ng/mL | 2.00 ± 0.04 ng/mL | 1.71 ± 0.01 ng/mL | 17.86 ± 0.20 ng/mL | 21.15 ± 0.50 ng/mL | 18.28 ± 0.23 ng/mL | COc1cc2c(c(OC)c1OC)-c1c(cc(OC)c(OC)c1OC)C[C@](C)(O)[C@@H](C)C2 [schisandrin] | – | exert antiinflammatory effects in a dose-dependent manner | – |
| 298 ± 185 ng·h/mL | 1.99 ± 1.31 h | 284 ± 189 ng·h/mL | 0.000125 s⁻¹ | 99.1 ± 27.1 ng/mL | 0.50 ± 0.31 h | 182.40 ± 1.23 ng/mL | 1.89 ± 0.00 ng/mL | 19.00 ± 0.64 ng/mL | 203.34 ± 1.39 ng/mL | 202.79 ± 12.80 ng/mL | 200.45 ± 2.10 ng/mL | 1.99 ± 0.01 ng/mL | 1.82 ± 0.01 ng/mL | 2.00 ± 0.03 ng/mL | 20.01 ± 0.31 ng/mL | 20.88 ± 1.19 ng/mL | 19.87 ± 1.43 ng/mL | OC[C@H]1O[C@@H](Oc2c(O)cc(O)cc2/C=C/c2ccc(O)cc2)[C@H](O)[C@@H](O)[C@@H]1O [stilbene glycoside] | – | exert antiinflammatory effects in a dose-dependent manner | – |

| SMILES | AUC(0-inf) [2] | half-life [2] | AUC [2] | k el [2] | C max1 [2] | T max1 [2] | Measured Concentration, auto-sampler for 12 h [3, 7] | Measured Concentration, auto-sampler for 12 h [3, 8] | Measured Concentration, auto-sampler for 12 h [3, 9] | Measured Concentration, -70°C for 14 days [3, 7] | Measured Concentration, room temperature for 6 h [3, 7] | Measured Concentration, three freeze-thaw cycles [3, 7] | Measured Concentration, -70°C for 14 days [3, 8] | Measured Concentration, room temperature for 6 h [3, 8] | Measured Concentration, three freeze-thaw cycles [3, 8] | Measured Concentration, -70°C for 14 days [3, 9] | Measured Concentration, room temperature for 6 h [3, 9] | Measured Concentration, three freeze-thaw cycles [3, 9] | proliferation and angiogenesis [4] | antiinflammatory effects [5] | other results |
| --- | --- | --- | --- | --- | --- | --- | --- | --- | --- | --- | --- | --- | --- | --- | --- | --- | --- | --- | --- | --- | --- |
| Cc1cc(O)c2c(c1)C(=O)c1cc(O)cc(O)c1C2=O [emodin] | 561 ± 192 ng·h/mL | 4.21 ± 2.63 h | 476 ± 121 ng·h/mL | 0.000108 s⁻¹ | 88.0 ± 37.5 ng/mL | 0.32 ± 0.14 h | 200.50 ± 11.66 ng/mL | 1.93 ± 0.02 ng/mL | 19.88 ± 1.81 ng/mL | 185.45 ± 0.98 ng/mL | 207.49 ± 1.27 ng/mL | 197.74 ± 5.65 ng/mL | 1.86 ± 0.03 ng/mL | 1.95 ± 0.05 ng/mL | 2.00 ± 0.02 ng/mL | 18.79 ± 0.18 ng/mL | 21.14 ± 0.99 ng/mL | 19.21 ± 0.33 ng/mL | – | – | peaks in plasma profile [1]: one peak |
